Experimental data reported in patent publication US20220370406A1, “METHOD OF TREATING STIMULANT USE DISORDER USING A COMBINATION OF TOPIRAMATE AND PHENTERMINE” (University of Kentucky Research Foundation, priority 2019, published 2022).

Test system: participants with cocaine use disorder
Assay: Medical safety session: subjective effects questionnaires after intranasal cocaine
Format: in vivo, human
Description: Participants completed one, single-blind medical safety session to ensure they could tolerate intranasal cocaine. Intranasal cocaine doses (i.e., 0 [placebo], 10, 20, 40 and 80 mg) were administered in ascending order. Placebo (i.e., 0 mg) was administered at 0900 hours. The subjective-effect questionnaires and cardiovascular measures described below were completed 30 minutes before placebo administration (i.e., 0830 hours), immediately following and at 15-minute intervals for 45 minutes. Subsequent cocaine administrations were separated by 45 minutes.

[1] = Cocaine 40 mg, Topiramate (0 mg/day) group
[2] = Cocaine 40 mg, Topiramate (50 mg/day) group
[3] = Cocaine 40 mg, Topiramate (100 mg/day) group
[4] = Cocaine 80 mg, Topiramate (0 mg/day) group
[5] = Cocaine 80 mg, Topiramate (50 mg/day) group
[6] = Cocaine 80 mg, Topiramate (100 mg/day) group

SMILES: COC(=O)[C@H]1[C@@H](OC(=O)c2ccccc2)C[C@@H]2CC[C@H]1N2C [Cocaine, cocaine]
- Adjective Rating Scales Sedative, mean peak effect [1]: 3.2
- Adjective Rating Scales Stimulant, mean peak effect [1]: 0.0
- Drug-Effect Questionnaire Active-Alert-Energetic, mean peak effect [1]: 26.0
- Drug-Effect Questionnaire Any Effect, mean peak effect [1]: 33.3
- Drug-Effect Questionnaire Bad Effects, mean peak effect [1]: 9.0
- Drug-Effect Questionnaire Euphoric, mean peak effect [1]: 10.6
- Drug-Effect Questionnaire Good Effects, mean peak effect [1]: 33.9
- Drug-Effect Questionnaire High, mean peak effect [1]: 29.5
- Drug-Effect Questionnaire Irregular Heart Beat, mean peak effect [1]: 7.4
- Drug-Effect Questionnaire Like Drug, mean peak effect [1]: 36.1
- Drug-Effect Questionnaire Nausea-Queasy-Sick, mean peak effect [1]: 3.2
- Drug-Effect Questionnaire Nervous-Anxious, mean peak effect [1]: 10.1
- Drug-Effect Questionnaire Performance Impaired, mean peak effect [1]: 10.7
- Drug-Effect Questionnaire Performance Improved, mean peak effect [1]: 10.7
- Drug-Effect Questionnaire Restless, mean peak effect [1]: 10.4
- Drug-Effect Questionnaire Rush, mean peak effect [1]: 28.1
- Drug-Effect Questionnaire Shaky-Jittery, mean peak effect [1]: 9.7
- Drug-Effect Questionnaire Sluggish-Fatigued-Lazy, mean peak effect [1]: 9.0
- Drug-Effect Questionnaire Stimulated, mean peak effect [1]: 21.1
- Drug-Effect Questionnaire Talkative-Friendly, mean peak effect [1]: 16.7
- Drug-Effect Questionnaire Willing to Pay For, mean peak effect [1]: 32.8
- Drug-Effect Questionnaire Willing to Take Again, mean peak effect [1]: 40.6
- Adjective Rating Scales Sedative, mean peak effect [2]: 2.1
- Adjective Rating Scales Stimulant, mean peak effect [2]: 10.1
- Drug-Effect Questionnaire Active-Alert-Energetic, mean peak effect [2]: 24.7
- Drug-Effect Questionnaire Any Effect, mean peak effect [2]: 19.3
- Drug-Effect Questionnaire Bad Effects, mean peak effect [2]: 7.2
- Drug-Effect Questionnaire Euphoric, mean peak effect [2]: 6.2
- Drug-Effect Questionnaire Good Effects, mean peak effect [2]: 17.0
- Drug-Effect Questionnaire High, mean peak effect [2]: 29.9
- Drug-Effect Questionnaire Irregular Heart Beat, mean peak effect [2]: 6.0
- Drug-Effect Questionnaire Like Drug, mean peak effect [2]: 16.7
- Drug-Effect Questionnaire Nausea-Queasy-Sick, mean peak effect [2]: 9.8
- Drug-Effect Questionnaire Nervous-Anxious, mean peak effect [2]: 1.8
- Drug-Effect Questionnaire Performance Impaired, mean peak effect [2]: 1.9
- Drug-Effect Questionnaire Performance Improved, mean peak effect [2]: 10.6
- Drug-Effect Questionnaire Restless, mean peak effect [2]: 2.9
- Drug-Effect Questionnaire Rush, mean peak effect [2]: 30.0
- Drug-Effect Questionnaire Shaky-Jittery, mean peak effect [2]: 2.8
- Drug-Effect Questionnaire Sluggish-Fatigued-Lazy, mean peak effect [2]: 0.1
- Drug-Effect Questionnaire Stimulated, mean peak effect [2]: 22.3
- Drug-Effect Questionnaire Talkative-Friendly, mean peak effect [2]: 13.6
- Drug-Effect Questionnaire Willing to Pay For, mean peak effect [2]: 17.0
- Drug-Effect Questionnaire Willing to Take Again, mean peak effect [2]: 17.4
- Adjective Rating Scales Sedative, mean peak effect [3]: 5.1
- Adjective Rating Scales Stimulant, mean peak effect [3]: 11.8
- Drug-Effect Questionnaire Active-Alert-Energetic, mean peak effect [3]: 13.8
- Drug-Effect Questionnaire Any Effect, mean peak effect [3]: 22.1
- Drug-Effect Questionnaire Bad Effects, mean peak effect [3]: 3.0
- Drug-Effect Questionnaire Euphoric, mean peak effect [3]: 6.7
- Drug-Effect Questionnaire Good Effects, mean peak effect [3]: 24.0
- Drug-Effect Questionnaire High, mean peak effect [3]: 23.6
- Drug-Effect Questionnaire Irregular Heart Beat, mean peak effect [3]: 9.0
- Drug-Effect Questionnaire Like Drug, mean peak effect [3]: 20.8
- Drug-Effect Questionnaire Nausea-Queasy-Sick, mean peak effect [3]: 16.2
- Drug-Effect Questionnaire Nervous-Anxious, mean peak effect [3]: 8.1
- Drug-Effect Questionnaire Performance Impaired, mean peak effect [3]: 4.1
- Drug-Effect Questionnaire Performance Improved, mean peak effect [3]: 5.0
- Drug-Effect Questionnaire Restless, mean peak effect [3]: 9.1
- Drug-Effect Questionnaire Rush, mean peak effect [3]: 20.1
- Drug-Effect Questionnaire Shaky-Jittery, mean peak effect [3]: 8.7
- Drug-Effect Questionnaire Sluggish-Fatigued-Lazy, mean peak effect [3]: 9.1
- Drug-Effect Questionnaire Stimulated, mean peak effect [3]: 16.5
- Drug-Effect Questionnaire Talkative-Friendly, mean peak effect [3]: 13.2
- Drug-Effect Questionnaire Willing to Pay For, mean peak effect [3]: 15.0
- Drug-Effect Questionnaire Willing to Take Again, mean peak effect [3]: 16.4
- Adjective Rating Scales Sedative, mean peak effect [4]: 4.1
- Adjective Rating Scales Stimulant, mean peak effect [4]: 8.5
- Drug-Effect Questionnaire Active-Alert-Energetic, mean peak effect [4]: 25.6
- Drug-Effect Questionnaire Any Effect, mean peak effect [4]: 39.1
- Drug-Effect Questionnaire Bad Effects, mean peak effect [4]: 8.2
- Drug-Effect Questionnaire Euphoric, mean peak effect [4]: 10.5
- Drug-Effect Questionnaire Good Effects, mean peak effect [4]: 33.3
- Drug-Effect Questionnaire High, mean peak effect [4]: 27.7
- Drug-Effect Questionnaire Irregular Heart Beat, mean peak effect [4]: 14.4
- Drug-Effect Questionnaire Like Drug, mean peak effect [4]: 34.6
- Drug-Effect Questionnaire Nausea-Queasy-Sick, mean peak effect [4]: 8.8
- Drug-Effect Questionnaire Nervous-Anxious, mean peak effect [4]: 12.1
- Drug-Effect Questionnaire Performance Impaired, mean peak effect [4]: 10.5
- Drug-Effect Questionnaire Performance Improved, mean peak effect [4]: 11.5
- Drug-Effect Questionnaire Restless, mean peak effect [4]: 10.1
- Drug-Effect Questionnaire Rush, mean peak effect [4]: 27.3
- Drug-Effect Questionnaire Shaky-Jittery, mean peak effect [4]: 13.8
- Drug-Effect Questionnaire Sluggish-Fatigued-Lazy, mean peak effect [4]: 5.7
- Drug-Effect Questionnaire Stimulated, mean peak effect [4]: 21.1
- Drug-Effect Questionnaire Talkative-Friendly, mean peak effect [4]: 17.9
- Drug-Effect Questionnaire Willing to Pay For, mean peak effect [4]: 30.5
- Drug-Effect Questionnaire Willing to Take Again, mean peak effect [4]: 38.4
- Adjective Rating Scales Sedative, mean peak effect [5]: 2.4
- Adjective Rating Scales Stimulant, mean peak effect [5]: 13.2
- Drug-Effect Questionnaire Active-Alert-Energetic, mean peak effect [5]: 31.4
- Drug-Effect Questionnaire Any Effect, mean peak effect [5]: 29.6
- Drug-Effect Questionnaire Bad Effects, mean peak effect [5]: 10.4
- Drug-Effect Questionnaire Euphoric, mean peak effect [5]: 14.7
- Drug-Effect Questionnaire Good Effects, mean peak effect [5]: 24.0
- Drug-Effect Questionnaire High, mean peak effect [5]: 31.8
- Drug-Effect Questionnaire Irregular Heart Beat, mean peak effect [5]: 0.8
- Drug-Effect Questionnaire Like Drug, mean peak effect [5]: 28.4
- Drug-Effect Questionnaire Nausea-Queasy-Sick, mean peak effect [5]: 1.2
- Drug-Effect Questionnaire Nervous-Anxious, mean peak effect [5]: 2.2
- Drug-Effect Questionnaire Performance Impaired, mean peak effect [5]: 1.9
- Drug-Effect Questionnaire Performance Improved, mean peak effect [5]: 11.2
- Drug-Effect Questionnaire Restless, mean peak effect [5]: 7.8
- Drug-Effect Questionnaire Rush, mean peak effect [5]: 28.4
- Drug-Effect Questionnaire Shaky-Jittery, mean peak effect [5]: 4.8
- Drug-Effect Questionnaire Sluggish-Fatigued-Lazy, mean peak effect [5]: 0.0
- Drug-Effect Questionnaire Stimulated, mean peak effect [5]: 31.8
- Drug-Effect Questionnaire Talkative-Friendly, mean peak effect [5]: 14.3
- Drug-Effect Questionnaire Willing to Pay For, mean peak effect [5]: 30.6
- Drug-Effect Questionnaire Willing to Take Again, mean peak effect [5]: 30.3
- Adjective Rating Scales Sedative, mean peak effect [6]: 7.8
- Adjective Rating Scales Stimulant, mean peak effect [6]: 15.7
- Drug-Effect Questionnaire Active-Alert-Energetic, mean peak effect [6]: 24.5
- Drug-Effect Questionnaire Any Effect, mean peak effect [6]: 39.5
- Drug-Effect Questionnaire Bad Effects, mean peak effect [6]: 12.2
- Drug-Effect Questionnaire Euphoric, mean peak effect [6]: 16.2
- Drug-Effect Questionnaire Good Effects, mean peak effect [6]: 27.9
- Drug-Effect Questionnaire High, mean peak effect [6]: 42.0
- Drug-Effect Questionnaire Irregular Heart Beat, mean peak effect [6]: 24.1
- Drug-Effect Questionnaire Like Drug, mean peak effect [6]: 32.4
- Drug-Effect Questionnaire Nausea-Queasy-Sick, mean peak effect [6]: 20.5
- Drug-Effect Questionnaire Nervous-Anxious, mean peak effect [6]: 22.9
- Drug-Effect Questionnaire Performance Impaired, mean peak effect [6]: 12.9
- Drug-Effect Questionnaire Performance Improved, mean peak effect [6]: 9.5
- Drug-Effect Questionnaire Restless, mean peak effect [6]: 11.1
- Drug-Effect Questionnaire Rush, mean peak effect [6]: 36.1
- Drug-Effect Questionnaire Shaky-Jittery, mean peak effect [6]: 22.1
- Drug-Effect Questionnaire Sluggish-Fatigued-Lazy, mean peak effect [6]: 22.0
- Drug-Effect Questionnaire Stimulated, mean peak effect [6]: 31.1
- Drug-Effect Questionnaire Talkative-Friendly, mean peak effect [6]: 16.1
- Drug-Effect Questionnaire Willing to Pay For, mean peak effect [6]: 21.0
- Drug-Effect Questionnaire Willing to Take Again, mean peak effect [6]: 33.6
